Measured values reported in patent publication US9303016B2, “Derivatives of aza adamantane and uses thereof” (CONNEXIOS LIFE SCIENCES PVT. LTD., priority 2011, dated 2016).

Legend:
[1] = phase IIa, 28-days, placebo-controlled, two-step hyperinsulinemic clamp studies; cited from earlier work
[2] = biological target: T1, human full length HSD11β1 (Homo sapiens, UniProt P28845); assay: In Vitro HSD11β1 Inhibition Assay; type: cell-based; details: CHO cells transiently expressing human HSD11β1; 200 nM cortisone+500 uM NADPH overnight; cortisone to cortisol by LC/MS-MS; read-out: 11βHSD1 (IC50)
T1 construct: transient expression of human full length HSD11β1 expression vector; host or cells: CHO cells, transient transfection
In short: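 Whole-cell assay in CHO cells transiently transfected with full-length human HSD11β1, re-seeded 24 h after transfection. Cells incubated overnight with 200 nM cortisone plus 500 uM NADPH, with or without inhibitor. Cortisone-to-cortisol conversion measured by LC/MS-MS; IC50 (nM) from an 8-point log concentration-inhibition curve.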

T1 sequence (P28845 whole entry): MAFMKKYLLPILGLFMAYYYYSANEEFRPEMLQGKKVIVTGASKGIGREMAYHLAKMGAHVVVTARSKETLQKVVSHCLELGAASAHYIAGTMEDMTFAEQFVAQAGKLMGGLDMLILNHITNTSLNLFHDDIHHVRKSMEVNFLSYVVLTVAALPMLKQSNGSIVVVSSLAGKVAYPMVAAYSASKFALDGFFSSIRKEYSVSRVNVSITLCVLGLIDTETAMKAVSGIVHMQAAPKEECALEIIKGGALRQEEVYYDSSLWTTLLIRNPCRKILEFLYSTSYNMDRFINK

| Compound | safety and tolerability [1] | IC50 [2] [nM] |
| --- | --- | --- |
| CNC(=O)c1ccc(-c2ccc(C3(C(=O)N4CC[C@@]5(C4)OC(=O)c4ccccc45)CC3)cc2)cn1 [INCB13739] | safe and well tolerated | – |
| CC(CC(=O)N1C2CC3CC1CC(C(N)=O)(C3)C2)c1nc2ccc(Cl)cc2s1 (stereo not shown) [Compound 196, 2-[3-(6-chloro-1,3-benzothiazol-2-yl)butanoyl]-2-azatricyclo[3.3.1.1^3,7]decane-5-carboxamide] | – | > 250 |
| CC(CC(=O)N1C2CC3CC1CC(O)(C3)C2)c1cn(C)c2cccc(Cl)c12 (stereo not shown) [Compound 207, 3-(4-chloro-1-methyl-1H-indol-3-yl)-1-(5-hydroxy-2-azatricyclo[3.3.1.1^3,7]dec-2-yl)butan-1-one] | – | 100 to 150 |
| COc1cc2c(C(C)CC(=O)N3C4CC5CC3CC(O)(C5)C4)c[nH]c2cc1Cl (single isomer, unassigned) [Compound 130, 3-(6-chloro-5-methoxy-1H-indol-3-yl)-1-(5-hydroxy-2-azatricyclo[3.3.1.1^3,7]dec-2-yl)butan-1-one] | – | < 100 |
